Measured values reported in patent US9695155B2, “Herbicidal substituted pyrimidinyloxy benzene compounds” (E. I. DU PONT DE NEMOURS AND COMPANY, priority 2013, dated 2017).

How the values were obtained:
velvetleaf [1] = assay: Test A postemergence; assay type: in vivo, Abutilon theophrasti; settings: 0 to 100 scale where 0 is no effect and 100 is complete control; for Velvetleaf plant response rating: 125 g ai/ha; for Plant response rating, Velvetleaf: 500 g ai/ha
Outline: (§1)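 Greenhouse pot test, loam/sand soil. Formulation: non-phytotoxic solvent mix plus surfactant. Pre: directed spray onto soil after sowing. Post: plants at 1–2 leaf, 2–10 cm. Rated visually vs untreated controls at ~10 d, 0 (no effect) to 100 (complete control).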

giant foxtail [2] = assay: Test A preemergence; assay type: in vivo, Setaria faberii; settings: for Foxtail, Giant plant response rating (0 to 100 scale): 125 g ai/ha; for Foxtail, Giant plant response rating: 500 g ai/ha, 0 to 100 scale where 0 is no effect and 100 is complete control
Outline: as §1

rice [3] = assay: Test C flooded paddy test; assay type: in vivo, Oryza sativa; settings: Flood, scale 0 to 100 (0 no effect, 100 complete control), 13 to 15 days
Outline: (§2)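 Flooded 3 cm over soil; compound into paddy water; depth kept constant. Greenhouse 13–15 d.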

corn [4] = assay: Test A preemergence; assay type: in vivo, Zea mays; settings: for Corn plant response rating (0 to 100 scale): 125 g ai/ha; for Corn plant response rating: 500 g ai/ha, 0 to 100 scale where 0 is no effect and 100 is complete control
Outline: as §1

barnyardgrass [5] = assay: Test C flooded paddy test; assay type: in vivo, Echinochloa crus-galli; settings: Flood, scale 0 to 100 (0 no effect, 100 complete control), 13 to 15 days
Outline: as §2

rice [6] = assay: Test B flooded paddy test; assay type: in vivo, Oryza sativa; settings: Flood, 250 g ai/ha; 0 to 100 scale where 0 is no effect and 100 is complete control
Outline: (§3)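 Greenhouse flooded-pot test: compounds dosed into 3 cm standing water over 2-leaf plants, flood held constant. Rated visually after 13–15 days on 0–100 (complete control = 100); a dash marks no test result.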

wheat [7] = assay: Test A postemergence; assay type: in vivo, Triticum aestivum; settings: 0 to 100 scale where 0 is no effect and 100 is complete control; for Wheat plant response rating: 125 g ai/ha; for Plant response rating, Wheat: 500 g ai/ha
Outline: as §1

pigweed [8] = assay: Test A preemergence; assay type: in vivo, Amaranthus retroflexus; settings: for Pigweed plant response rating (0 to 100 scale): 125 g ai/ha; for Pigweed plant response rating: 500 g ai/ha, 0 to 100 scale where 0 is no effect and 100 is complete control
Outline: as §1

pigweed [9] = assay: Test A postemergence; assay type: in vivo, Amaranthus retroflexus; settings: 0 to 100 scale where 0 is no effect and 100 is complete control; for Pigweed plant response rating: 125 g ai/ha; for Plant response rating, Pigweed: 500 g ai/ha
Outline: as §1

morningglory [10] = assay: Test A preemergence; assay type: in vivo, Ipomoea spp.; settings: for Morningglory plant response rating (0 to 100 scale): 125 g ai/ha; for Morningglory plant response rating: 500 g ai/ha, 0 to 100 scale where 0 is no effect and 100 is complete control
Outline: as §1

large (Lg) crabgrass [11] = assay: Test A preemergence; assay type: in vivo, Digitaria sanguinalis; settings: for Crabgrass, Large plant response rating (0 to 100 scale): 125 g ai/ha; for Crabgrass, Large plant response rating: 500 g ai/ha, 0 to 100 scale where 0 is no effect and 100 is complete control
Outline: as §1

corn [12] = assay: Test A postemergence; assay type: in vivo, Zea mays; settings: 0 to 100 scale where 0 is no effect and 100 is complete control; for Corn plant response rating: 125 g ai/ha; for Plant response rating, Corn: 500 g ai/ha
Outline: as §1

barnyardgrass [13] = assay: Test B flooded paddy test; assay type: in vivo, Echinochloa crus-galli; settings: Flood, 250 g ai/ha; 0 to 100 scale where 0 is no effect and 100 is complete control
Outline: as §3

velvetleaf [14] = assay: Test A preemergence; assay type: in vivo, Abutilon theophrasti; settings: for Velvetleaf plant response rating (0 to 100 scale): 125 g ai/ha; for Velvetleaf plant response rating: 500 g ai/ha, 0 to 100 scale where 0 is no effect and 100 is complete control
Outline: as §1

morningglory [15] = assay: Test A postemergence; assay type: in vivo, Ipomoea spp.; settings: 0 to 100 scale where 0 is no effect and 100 is complete control; for Morningglory plant response rating: 125 g ai/ha; for Plant response rating, Morningglory: 500 g ai/ha
Outline: as §1

barnyardgrass [16] = assay: Test A preemergence; assay type: in vivo, Echinochloa crus-galli; settings: for Barnyardgrass plant response rating (0 to 100 scale, 0 is no effect, 100 is complete control): 125 g ai/ha; for Barnyardgrass plant response rating: 500 g ai/ha, 0 to 100 scale where 0 is no effect and 100 is complete control
Outline: as §1

large (Lg) crabgrass [17] = assay: Test A postemergence; assay type: in vivo, Digitaria sanguinalis; settings: 0 to 100 scale where 0 is no effect and 100 is complete control; for Crabgrass, Large plant response rating: 125 g ai/ha; for Plant response rating, Crabgrass, Large: 500 g ai/ha
Outline: as §1

sedge, umbrella [18] = assay: Test C flooded paddy test; assay type: in vivo, Cyperus difformis; settings: Flood, scale 0 to 100 (0 no effect, 100 complete control), 13 to 15 days
Outline: as §2

giant foxtail [19] = assay: Test A postemergence; assay type: in vivo, Setaria faberii; settings: 0 to 100 scale where 0 is no effect and 100 is complete control; for Foxtail, Giant plant response rating: 125 g ai/ha; for Plant response rating, Foxtail, Giant: 500 g ai/ha
Outline: as §1

Heteranthera limosa = assay: Test B flooded paddy test; assay type: in vivo; settings: Flood, 250 g ai/ha; 0 to 100 scale where 0 is no effect and 100 is complete control
Outline: as §3

sedge, umbrella [20] = assay: Test B flooded paddy test; assay type: in vivo, Cyperus difformis; settings: Flood, 250 g ai/ha; 0 to 100 scale where 0 is no effect and 100 is complete control
Outline: as §3

ducksalad = assay: Test C flooded paddy test; assay type: in vivo, Heteranthera limosa; settings: Flood, scale 0 to 100 (0 no effect, 100 complete control), 13 to 15 days
Outline: as §2

wheat [21] = assay: Test A preemergence; assay type: in vivo, Triticum aestivum; settings: for Wheat plant response rating (0 to 100 scale): 125 g ai/ha; for Wheat plant response rating: 500 g ai/ha, 0 to 100 scale where 0 is no effect and 100 is complete control
Outline: as §1

barnyardgrass [22] = assay: Test A postemergence; assay type: in vivo, Echinochloa crus-galli; settings: 0 to 100 scale where 0 is no effect and 100 is complete control; for Barnyardgrass plant response rating: 125 g ai/ha; for Plant response rating, Barnyardgrass: 500 g ai/ha
Outline: as §1

C#Cc1cnn(-c2ccccc2Oc2ncc(Cl)cn2)c1 [Compound 188]
40: Morningglory plant response rating (morningglory [15]) | Plant response rating, Ducksalad (ducksalad; 125 g ai/ha)
20: Corn plant response rating (corn [4]) | Corn plant response rating (corn [12])
100: Plant response rating, Velvetleaf (velvetleaf [1]) | Foxtail, Giant plant response rating (giant foxtail [2]) | Pigweed plant response rating (0 to 100 scale) (pigweed [8]) | Pigweed plant response rating (pigweed [8]) | Pigweed plant response rating (pigweed [9]) | Plant response rating, Pigweed (pigweed [9]) | Crabgrass, Large plant response rating (large (Lg) crabgrass [11]) | Velvetleaf plant response rating (velvetleaf [14]) | Plant response rating, Morningglory (morningglory [15]) | Barnyardgrass plant response rating (barnyardgrass [16])
10: Morningglory plant response rating (0 to 100 scale) (morningglory [10])
80: Plant response rating, Crabgrass, Large (large (Lg) crabgrass [17])
90: Velvetleaf plant response rating (velvetleaf [1]) | Foxtail, Giant plant response rating (0 to 100 scale) (giant foxtail [2]) | Morningglory plant response rating (morningglory [10]) | Crabgrass, Large plant response rating (0 to 100 scale) (large (Lg) crabgrass [11]) | Plant response rating, Foxtail, Giant (giant foxtail [19]) | Plant response rating, Ducksalad (Heteranthera limosa) | Plant response rating, Sedge, Umbrella (sedge, umbrella [20]) | Plant response rating, Barnyardgrass (barnyardgrass [22])
50: Plant response rating, Corn (corn [12]) | Crabgrass, Large plant response rating (large (Lg) crabgrass [17]) | Plant response rating, Sedge, Umbrella (sedge, umbrella [18]; 125 g ai/ha)
70: Velvetleaf plant response rating (0 to 100 scale) (velvetleaf [14])
60: Foxtail, Giant plant response rating (giant foxtail [19]) | Plant response rating, Ducksalad (ducksalad; 250 g ai/ha)
75: Plant response rating, Sedge, Umbrella (sedge, umbrella [18]; 250 g ai/ha)
30: Plant response rating, Wheat (wheat [7]) | Plant response rating, Barnyardgrass (barnyardgrass [13]) | Barnyardgrass plant response rating (0 to 100 scale, 0 is no effect, 100 is complete control) (barnyardgrass [16]) | Wheat plant response rating (wheat [21]) | Barnyardgrass plant response rating (barnyardgrass [22])
0: Plant response rating, Rice (rice [3]; 31 g ai/ha) | Plant response rating, Rice (rice [3]; 62 g ai/ha) | Plant response rating, Rice (rice [3]; 125 g ai/ha) | Plant response rating, Rice (rice [3]; 250 g ai/ha) | Corn plant response rating (0 to 100 scale) (corn [4]) | Plant response rating, Barnyardgrass (barnyardgrass [5]; 31 g ai/ha) | Plant response rating, Barnyardgrass (barnyardgrass [5]; 62 g ai/ha) | Plant response rating, Barnyardgrass (barnyardgrass [5]; 125 g ai/ha) | Plant response rating, Barnyardgrass (barnyardgrass [5]; 250 g ai/ha) | Plant response rating, Rice (rice [6]) | Wheat plant response rating (wheat [7]) | Plant response rating, Sedge, Umbrella (sedge, umbrella [18]; 31 g ai/ha) | Plant response rating, Sedge, Umbrella (sedge, umbrella [18]; 62 g ai/ha) | Plant response rating, Ducksalad (ducksalad; 31 g ai/ha) | Plant response rating, Ducksalad (ducksalad; 62 g ai/ha) | Wheat plant response rating (0 to 100 scale) (wheat [21])

CON=Cc1cccc(Oc2ncc(Cl)cn2)c1-n1cc(Br)cn1 [Compound 203]
75: Plant response rating, Sedge, Umbrella (sedge, umbrella [18]; 62 g ai/ha)
90: Plant response rating, Velvetleaf (velvetleaf [1]) | Foxtail, Giant plant response rating (0 to 100 scale) (giant foxtail [2]) | Pigweed plant response rating (0 to 100 scale) (pigweed [8]) | Plant response rating, Pigweed (pigweed [9]) | Plant response rating, Ducksalad (Heteranthera limosa) | Plant response rating, Sedge, Umbrella (sedge, umbrella [20])
10: Plant response rating, Rice (rice [6]) | Morningglory plant response rating (morningglory [10]) | Barnyardgrass plant response rating (0 to 100 scale, 0 is no effect, 100 is complete control) (barnyardgrass [16])
80: Velvetleaf plant response rating (velvetleaf [1]) | Plant response rating, Crabgrass, Large (large (Lg) crabgrass [17]) | Plant response rating, Foxtail, Giant (giant foxtail [19])
60: Crabgrass, Large plant response rating (large (Lg) crabgrass [17])
70: Pigweed plant response rating (pigweed [9]) | Plant response rating, Morningglory (morningglory [15]) | Foxtail, Giant plant response rating (giant foxtail [19]) | Plant response rating, Ducksalad (ducksalad; 125 g ai/ha) | Plant response rating, Barnyardgrass (barnyardgrass [22])
40: Plant response rating, Barnyardgrass (barnyardgrass [5]; 31 g ai/ha) | Velvetleaf plant response rating (velvetleaf [14]) | Barnyardgrass plant response rating (barnyardgrass [16]) | Barnyardgrass plant response rating (barnyardgrass [22])
50: Plant response rating, Barnyardgrass (barnyardgrass [5]; 62 g ai/ha) | Plant response rating, Barnyardgrass (barnyardgrass [5]; 125 g ai/ha) | Plant response rating, Corn (corn [12]) | Plant response rating, Sedge, Umbrella (sedge, umbrella [18]; 31 g ai/ha) | Plant response rating, Ducksalad (ducksalad; 62 g ai/ha)
30: Corn plant response rating (corn [12]) | Velvetleaf plant response rating (0 to 100 scale) (velvetleaf [14])
85: Plant response rating, Sedge, Umbrella (sedge, umbrella [18]; 125 g ai/ha)
0: Plant response rating, Rice (rice [3]; 31 g ai/ha) | Corn plant response rating (0 to 100 scale) (corn [4]) | Corn plant response rating (corn [4]) | Wheat plant response rating (wheat [7]) | Morningglory plant response rating (0 to 100 scale) (morningglory [10]) | Plant response rating, Barnyardgrass (barnyardgrass [13]) | Plant response rating, Ducksalad (ducksalad; 31 g ai/ha) | Wheat plant response rating (0 to 100 scale) (wheat [21]) | Wheat plant response rating (wheat [21])
20: Plant response rating, Rice (rice [3]; 62 g ai/ha) | Plant response rating, Rice (rice [3]; 125 g ai/ha) | Plant response rating, Wheat (wheat [7]) | Morningglory plant response rating (morningglory [15])
100: Foxtail, Giant plant response rating (giant foxtail [2]) | Pigweed plant response rating (pigweed [8]) | Crabgrass, Large plant response rating (0 to 100 scale) (large (Lg) crabgrass [11]) | Crabgrass, Large plant response rating (large (Lg) crabgrass [11])
